Source: patent US20170266168A1, “METHODS FOR PREVENTING OR TREATING OSTEOARTHRITIS” (RUSH UNIVERSITY MEDICAL CENTER, priority 2014, published 2017)

Experiments:
[1] = test system: Has1KO mice with patellar groove cartilage injury; experiment: Joint tissue pathology by histology (Safranin-O, Masson's Trichrome) after cartilage injury; assay type: in vivo
Method: (§1) Under approved IACUC protocols, a confined non-bleeding cartilage injury was created in the patellar groove of the right legs of 12-wk old male WT and Has1KO (C57Bl6) mice. Pirfenidone was provided in the chow (5 mg/g, Harlan) starting 3 days after surgery, and mice ingested about 600 mg pirfenidone/kg body weight daily. Joint tissue pathology was evaluated by photography of joint tissue surfaces after India Ink application (FIG. 1) and by histology of the intact joint with Safranin-O and Masson's Trichrome stained sections (FIG. 2.) For gene expression studies, skin and muscle was removed and whole knee joints were stored in RNALater. Inventoried TAQMAN® probes for Gapdh, Has2, Tnfaip6, Col1a1, Col3a1 and Vcan V2 were used to measure expression at 0, 7, 14, and 28 days post-injury, and Qiagen RT2 Profiler PCR Assay mouse arrays for NF-κB (PAMM-225ZA) and Fibrosis (PAMM-120ZA) pathways were used to assay whole joints at 21-28 days after injury, with and without pirfenidone treatment. Relative mRNA abundance was calculated as 1000×2−ΔCt, with ΔCt defined as Ct of the gene of interest minus Ct of Gapdh. Fold change was defined as abundance at a time point divided by abundance in the naïve condition for the same genotype.
In the same way, the effects on expression of pro-inflammatory and pro-fibrotic genes were accompanied by profound effects on tissue pathology. A histologic examination of sagittal sections across the entire joint was done on 3 mice from each group.

[2] = test system: whole knee joints of Has1KO mice with patellar groove cartilage injury; experiment: Whole joint gene expression (TAQMAN qPCR, RT2 Profiler NF-κB and Fibrosis arrays) after cartilage injury; assay type: in vivo
Method: as §1

injured Has1KO joints = experiment: Micro-computed Tomography of bone structure after cartilage injury; assay type: in vivo, mice; details: femur posterior to trochlear groove, day 28
Description: The effect of pirfenidone administration on bone structure was examined using Micro-computed Tomography (micro-CT) to identify bone differences (FIG. 7). The regions of interest examined included the trabecular bone in the femur directly posterior to the trochlear groove, where the defect was created (FIG. 8) and the cortical bone of the femoral midshaft (FIG. 9.) The trabecular bone parameters, obtained using micro-CT, indicate a recovery in injured Has1KO joints of bone-to-total volume, connectivity density, trabecular number, trabecular thickness, and trabecular separation to naive levels, surpassing even injured WT in bone recovery, and are shown in FIG. 10.

[3] = sagittal sections across entire joint, 3 mice per group
[4] = 24 day drug treatment post injury

Cc1ccc(=O)n(-c2ccccc2)c1 [pirfenidone, 5-methyl-1-phenylpyridin-2-one]
loss of cartilage and subchondral bone in the joint after cartilage injury ([1]; Has1KO, 4 weeks post-injury, Safranin-O stained): reduces | Safranin-O staining in the cartilages (including growth plates) [1, 3]: marked enhancement | appearance of fibrotic tissues [1, 3]: blocked | activation of anti-apoptotic, anti-fibrotic and matrix remodeling genes (Sod2, Ccl12, Il13ra2, Serpine1, Timp1) [2, 4]: enhanced | expression of genes in the Nf-κB and Fibrosis pathways (arrays of 84 genes each) [2, 4]: marked effect | expression of genes linked to the aberrant wound healing responses ([2]; pirfenidone in chow 5 mg/g (about 600 mg/kg daily) from 3 days after surgery, whole joint): normalized | Has2 expression (delayed and more prolonged than in WT) ([2]; pirfenidone in chow, whole joint): normalized | Tnfaip6 expression (enhanced at 2 weeks in Has1KO) ([2]; pirfenidone in chow, whole joint, 2 weeks): normalized | Vcan V2 expression (markedly inhibited in Has1KO) ([2]; pirfenidone in chow, whole joint, 7 days): inhibition was corrected | trabecular bone parameters (bone-to-total volume, connectivity density, trabecular number, thickness, separation) (injured Has1KO joints): recovery
